How the values were obtained:
rat pituitary cells = assay: Stimulation of growth hormone production in rat pituitary cells in tissue culture (RIA for rat growth hormone); assay type: cell-based; details: for Potency Relative to GRF(1-44)-NH2: Exp. #GB 83, rat anterior pituitary cells, 4 hours of incubation, 0.8 to 200 fmol per ml, GH by RIA
Protocol: The assay for biological activity, which is based on the ability to stimulate production of growth hormone in rat pituitary cells in tissue culture, was performed as discribed in Example 2.
Pituitaries from 30-40 male Sprague-Dawley rats (175 g) were removed aseptically after decapitation. The anterior lobes were collected, washed 3 times in sterile Hepes buffer (0.025M) (pH 7.35) and dispersed at 37° C. in 20-30 ml Hepes buffer (pH 7.35) containing collagenase (4 mg per ml) and Dispase (Protease grade II, 2 mg per ml). After gentle 100-110 min vortexing and trituration by Pasteur pipette, the dispersed cells were separated by centrifugation (150×g, 4 min) and re-suspended in Hepes buffer containing neuraminidase ([…]), and 200 µg/ml ethylenediaminetetraacetic acid (EDTA) disodium salt, pH 7.35, for 10 min.
The cells were washed twice with plating medium and plated on multiwell-plates (1.5×10^5 cells per ml) using the following defined medium: F-12/DMEM/BGJ (6:3:1) (Gibco: 430-1700/430-1600/320-2591) with 2 g BSA/l., 2.38 g Hepes/1.50 mg PSN antibiotic mixture (Gibco Laboratories), 10 mg/l transferrin (Sigma T2252) with 1.83 g NaHCO3 /l (Baker 3506). The medium in each well was supplemented either with a sample of the novel GRF peptide or natural GRF(1-44)-NH2 at concentrations ranging from 0.8 to 200 fmol per ml of medium. Control wells contained no supplement. Plating was done with this medium added with 2% fetal calf serum to ensure rapid fixation of the cells.
On the fourth day, the cells were washed twice with the defined medium without fetal calf serum. Finally 900 μl of defined medium was added to each well plus 100 μl of the same medium containing each individual treatment, in triplicate. After 4 hours of incubation the medium was collected and diluted as required to conduct radioimmunoassay (RIAs) for rat growth hormone.
RIAs for rat growth hormone were conducted using Sinha's anti-murine GH immune serum and procedures according to the National Pituitary Agency using protein A to precipitate antibody antigen complex.

[1] = test system: release of growth hormone; details: in vitro; Rivier et al., Nature 300: 276 (1982); cited from earlier work

Question: Which “Potency Relative to GRF(1-44)-NH2” value (rat pituitary cells) does the source give for GRF(1-29)-NH2 [GRF(1-29)NH2] here?
Answer: 0.5

Question: What about the “Intrinsic activity and potency on a weight for weight basis” value [1] of the same substance?
Answer: full intrinsic activity and potency

Question: What does the source list for GRF(1-44)-NH2 [GRF(1-44)NH2]?
Answer: Potency Relative to GRF(1-44)-NH2 (rat pituitary cells): 1.0; Biological activity compared with natural GRF(1-44)-NH2 (rat pituitary cells; vs natural GRF(1-44)-NH2 isolated from human pancreatic tumor (Salk Institute standard hGRF-NH2 (NL-A-10))): identical to the natural GRF(1-44)-NH2
